# Results as given in patent EP4768499A1, “MACROCYCLIC PEPTIDE COMPOUND HAVING CELL MEMBRANE PERMEABILITY AND METABOLIC STABILITY, AND LIBRARY CONTAINING SAME” (Chugai Seiyaku Kabushiki Kaisha, priority 2023, dated 2025).
# Non-standard residues stand in square brackets, D forms with d. Residues, ends and D or L forms follow the SMILES beside them. *: point of attachment. NMeF = CN[C@@H](Cc1ccccc1)C(=O)O; NMeI = CC[C@H](C)[C@H](NC)C(=O)O; hPhe = N[C@@H](CCc1ccccc1)C(=O)O; NMeL = CN[C@@H](CC(C)C)C(=O)O; NMeV = CN[C@H](C(=O)O)C(C)C; d(β3hA) = C[C@@H](N)CC(=O)O; NMeAbu = CC[C@H](NC)C(=O)O; NMeA = CN[C@@H](C)C(=O)O; Abu = CC[C@H](N)C(=O)O; βAla = NCCC(=O)O; Sar = CNCC(=O)O; tBu = CC(C)(C)*
# Key:
# [1] = Metabolic stability test: liver microsomal stability assay; type: in vitro ADME, mouse; conditions: mouse liver microsomes 0.5 mg protein/mL, compound 1 µM; for microsomal CLint at 1 µM: male, pH 7.4, presence of NADPH, read-out: Mouse Hepatic Microsome CLh,int NADPH(+); for Mouse Hepatic Microsome CLh,int NADPH(-): absence of NADPH
# Protocol: Under the presence and absence of NADPH, a microsome solution prepared to a concentration of 0.5 mg protein/mL using 100 mM phosphate buffer (pH 7.4) with mouse liver microsomes (male, Corning Incorporated, USA) and the compound at a concentration of 1 µM were subjected to a metabolic reaction for 22 minutes, 44 minutes, or 66 minutes. Protein removal processing was performed over time using acetonitrile, and the remaining amount of unchanged compound was analyzed using LCMS to calculate the intrinsic hepatic clearance (CLh, int) (Table 6).
# [2] = Membrane permeability test using Caco-2 cells with preincubation; type: in vitro ADME; conditions: Caco-2; preincubation 20 to 24 hours; Apical FaSSIF/HBSS pH 6.0, Basal HBSS 4% BSA pH 7.4; 180 minutes; read-out: Caco2 Papp
# Protocol: (§1) The permeability coefficient (Caco-2 Papp (cm/sec)) is calculated using a numerical expression 1. [Expression 1] Papp = (1)/(C1 (0) × S) × (dQ)/(dt) [formula] dQ/dt represents the permeation rate of drug (the amount of drug appearing on the Basal side per unit time), S represents the total surface area of cells, and C1(0) represents the concentration of drug added on the Apical side.
# (§2) Using a mixed medium of FaSSIF containing 1% DMSO and DMEM as the apical medium, and DMEM as the basal medium, Caco-2 cells and peptide compounds are preincubated for 20 to 24 hours under conditions of 5% CO2, 37°C, and 80 rpm. Afterward, the culture medium on the Apical side and the Basal side are aspirated and washed, the peptide compound was added to a FaSSIF/HBSS buffer solution containing 1% DMSO (1% DMSO) (pH 6.0) at the Apical side, a HBSS buffer solution containing 4% BSA (pH 7.4) was added to the Basal side, and measurement of membrane permeability is started. Each well is shaken under 5% CO2 at 37°C and 80 rpm, and at 180 minutes after the start of shaking, a sample on the Basal side is collected. The amount of peptide compounds in the sample was measured using LCMS, and the membrane permeability coefficient was calculated from the permeation amount (Table 7). When calculating the membrane permeability coefficient (Papp) from the permeation amount, the following expression can be used. Papp = (dQ)/(dt) × (1)/(C1 (0) × S) [formula]
# (§3) dQ/dt represents the permeation rate of drug (the amount of drug appearing on the Basal side per unit time), C1(0) represents the concentration of drug added on the Apical side, and S represents the total surface area of cells.
# [3] = system: Caco-2 cells; assay: as above; type: in vitro ADME; conditions: Caco-2 cells, preincubation 20 to 24 hours; apical FaSSIF/HBSS 1% DMSO pH 6.0, basal HBSS 4% BSA pH 7.4; basal sample at 180 minutes
# Protocol: as §1, §2, §3
microsomal CLint at 1 µM [1] [µL/min/mg],"Mouse Hepatic Microsome CLh,int NADPH(-) [1] [µL/min/mg Protein]",Papp A→B [2] [×10⁻⁶ cm/s],Caco2 Papp (10^-6 cm/sec) [3],Compound
51.4,30.0,< 0.11,<0.11 10^-6 cm/sec,CC[C@@H]1NC(=O)[C@H](CC(C)C)N(C)C(=O)[C@H](CC(C)C)NC(=O)CN(C)C(=O)[C@H](C(C)C)NC(=O)[C@H](CC(C)C)N(C)C(=O)[C@H](C(C)C)NC(=O)[C@H](Cc2ccccc2)N(C)C(=O)[C@H](C)N(C)C(=O)[C@@H](C)NC(=O)C[C@@H](C)NC(=O)[C@H](C(C)C)N(C)C(=O)[C@H](CC)N(C)C(=O)[C@H](CCc2ccccc2)NC1=O [pd006] (cyclo([Abu][hPhe][NMeAbu][NMeV][d(β3hA)][dA][NMeA][NMeF]V[NMeL]V[Sar]L[NMeL]))
40.8,34.9,0.11,0.11 10^-6 cm/sec,CC[C@H](C)[C@@H]1NC(=O)[C@H](CC(C)C)N(C)C(=O)[C@H](CC(C)C)NC(=O)[C@H](C)N(C)C(=O)C[C@@H](C)NC(=O)[C@H](CC(C)C)NC(=O)[C@H](CC(C)C)N(C)C(=O)CN(C)C(=O)[C@H](C(C)C)NC(=O)[C@H]([C@@H](C)CC)N(C)C(=O)[C@H](COC(C)(C)C)NC(=O)[C@H](CC(C)C)N(C)C(=O)CCNC(=O)[C@H](Cc2ccccc2)N(C)C1=O [pd007] (cyclo(I[NMeF][βAla][NMeL]S(tBu)[NMeI]V[Sar][NMeL]L[d(β3hA)][NMeA]L[NMeL]))
13.4,11.8,0.04,0.04 10^-6 cm/sec,CC[C@@H]1NC(=O)[C@H](Cc2ccccc2)N(C)C(=O)[C@H](COC(C)(C)C)NC(=O)[C@H](CC(C)C)N(C)C(=O)[C@H](C(C)C)NC(=O)CN(C)C(=O)[C@H]([C@@H](C)O)NC(=O)[C@H](CC(C)C)N(C)C(=O)[C@H](C(C)C)NC(=O)[C@H](Cc2ccccc2)N(C)C(=O)[C@H](C)N(C)C(=O)[C@@H](C)NC(=O)C[C@@H](C)NC(=O)[C@H](C(C)C)N(C)C1=O [pd008] (cyclo([Abu][NMeV][d(β3hA)][dA][NMeA][NMeF]V[NMeL]T[Sar]V[NMeL]S(tBu)[NMeF]))
38.9,42.4,0.13,0.13 10^-6 cm/sec,CC[C@H](C)[C@@H]1NC(=O)[C@H](CC(C)C)N(C)C(=O)[C@H](CC(C)C)NC(=O)[C@H](C)N(C)C(=O)C[C@@H](C)NC(=O)CN(C)C(=O)[C@H](CC(C)C)N(C)C(=O)[C@H]([C@@H](C)O)NC(=O)[C@H](C(C)C)NC(=O)[C@H]([C@@H](C)CC)N(C)C(=O)[C@H](COC(C)(C)C)NC(=O)[C@H](CC(C)C)N(C)C(=O)[C@H](C)NC(=O)[C@H](Cc2ccccc2)N(C)C1=O [pd009] (cyclo(A[NMeL]S(tBu)[NMeI]VT[NMeL][Sar][d(β3hA)][NMeA]L[NMeL]I[NMeF]))

Compound,microsomal CLint at 1 µM [1] [µL/min/mg],"Mouse Hepatic Microsome CLh,int NADPH(-) [1] [µL/min/mg Protein]",Papp A→B [2] [×10⁻⁶ cm/s],Caco2 Papp (10^-6 cm/sec) [3]
CC[C@@H]1NC(=O)[C@H](CC(C)C)N(C)C(=O)[C@H]([C@@H](C)CC)NC(=O)CN(C)C(=O)C[C@@H](C)NC(=O)[C@H](C(C)C)N(C)C(=O)[C@H](COC(C)(C)C)NC(=O)[C@H](CC(C)C)N(C)C(=O)[C@H](C)NC(=O)[C@H](Cc2ccccc2)N(C)C(=O)[C@H](CC(C)C)NC(=O)CN(C)C(=O)[C@H]([C@@H](C)O)NC(=O)[C@H](CC(C)C)N(C)C1=O [pd010] (cyclo(A[NMeL]S(tBu)[NMeV][d(β3hA)][Sar]I[NMeL][Abu][NMeL]T[Sar]L[NMeF])),59.7,27.8,0.72,0.72 10^-6 cm/sec
